In ChEMBL document CHEMBL4196103, “Bioactive Sesquiterpenoids from the Peeled Stems of Syringa pinnatifolia” (J Nat Prod, 2018):
Calls of active or inactive are those of the source. The rule behind the calls is not given here.

Tests used:
Mus musculus = species on record: Mus musculus; assay: Protection against hypoxia-induced injury in […] cells assessed as increase in cell viability at 40 uM incubated for 20 hrs under hypoxia condition by CCK-8 assay; format: functional, cell-based
RAW264.7 [1] = assay: Antiinflammatory activity against mouse RAW264.7 cells assessed as inhibition of LPS-induced NO production preincubated for 2 hrs followed by LPS stimulation measured after 24 hrs by Griess reagent based assay; format: functional, cell-based
RAW264.7 [2] = assay: Antiinflammatory activity against mouse RAW264.7 cells assessed as inhibition of LPS-induced TNFalpha production preincubated for 1 hr followed by LPS stimulation measured after 24 hrs by ELISA; format: functional, cell-based
RAW264.7 [3] = assay: Antiinflammatory activity against mouse RAW264.7 cells assessed as inhibition of LPS-induced IL-6 production preincubated for 1 hr followed by LPS stimulation measured after 24 hrs by ELISA; format: functional, cell-based
RAW264.7 [4] = assay: Antiinflammatory activity against mouse RAW264.7 cells assessed as inhibition of LPS-induced NO production at 80 uM preincubated for 2 hrs followed by LPS stimulation measured after 24 hrs by Griess reagent based assay relative to control; format: functional
[5] = Cytotoxicity against […] cells assessed as decrease in cell viability at 20 uM incubated for 24 hrs by CCK-8 assay; format: cell-based

Row | IC50 (RAW264.7 [1]) [µM] | SMILES | inhibition (RAW264.7 [2]) | inhibition (RAW264.7 [3]) | inhibition at 80 µM (RAW264.7 [4]) [%] | other results
1 | 13.6 | C/C1=C\CC(C)(C)/C=C/C(=O)/C(C)=C/CC1 [ZERUMBONE] | Dose-dependent effect | Dose-dependent effect |  | Activity (Mus musculus): Active
2 | 33.6 | COc1ccc2c(c1)c(CC(=O)O)c(C)n2C(=O)c1ccc(Cl)cc1 [INDOMETHACIN] |  |  |  | 
3 |  | CC1(C)C/C=C(/C=O)CC[C@@H]2[C@@H]1CC(=O)[C@@]2(C)O |  |  | < 50 | 
4 | 41.4 | CO[C@H]1CC/C(C)=C/CC(C)(C)/C=C/C(=O)[C@@H]1CO | Dose-dependent effect | Dose-dependent effect |  | 
5 |  | C=C1CC[C@H](O)[C@H](C)C(=O)C[C@@H]2[C@@H]1CC2(C)C |  |  | < 50 | 
6 | 33.1 | C/C1=C\CC(C)(C)/C=C/C(=O)[C@H](CO)CCC1 | Dose-dependent effect | Dose-dependent effect |  | 
7 | 18.1 | COC1CC/C(C)=C/CC(C)(C)/C=C/C(=O)C1CO (centres undefined) | Dose-dependent effect | Dose-dependent effect |  | Activity (Mus musculus): Active
8 |  | C/C1=C\C[C@H](O)[C@]2(C)O[C@H]2CC(C)(C)/C=C/C1=O |  |  | < 50 | 
9 |  | C/C1=C\CC(C)(C)/C=C/C(=O)[C@@H](C)[C@@H](O)CC1 |  |  | < 50 | 
10 |  | C=C1CC[C@H]2O[C@]2(C)[C@@H](O)C[C@@H]2[C@@H]1CC2(C)C [SUBEROSOL A] |  |  | < 50 | 
11 |  | C=C1C(=O)C/C=C(\C)[C@@H](O)C[C@@H]2[C@@H]1CC2(C)C |  |  | < 50 | 
12 |  | C/C1=C\CC(C)(C)/C=C/C(=O)/C(CO)=C/CC1 |  |  |  | Activity [5]: Toxic
13 |  | C/C1=C\CC(C)(C)/C=C/C(=O)[C@H](C)[C@H](O)CC1 |  |  | < 50 | 
14 |  | CC1(C)C/C=C(/C=O)CC[C@H]2[C@H]1CC(=O)[C@]2(C)O |  |  | < 50 | 
15 |  | CO[C@H]1CC[C@]2(C)O[C@H]2CC(C)(C)/C=C/C(=O)[C@H]1C |  |  | < 50 | 
16 |  | C/C1=C\CC[C@@]2(C)O[C@@H]2[C@@H](O)C(C)(C)/C=C/C1=O |  |  | < 50 | 
17 | 70.6 | C/C1=C\CC(C)(C)/C=C/C(=O)[C@@H](CO)CCC1 | Dose-dependent effect | Dose-dependent effect |  | 
18 |  | C/C1=C\CC(C)(C)/C=C/[C@H](O)[C@H](C)CCC1 |  |  | < 50 | 
19 |  | CCC(=O)/C=C/C(C)(C)C/C=C(\C)CCC=O |  |  | < 50 | 
20 | 27.2 | CO[C@@H]1CC/C(C)=C/CC(C)(C)/C=C/C(=O)[C@H]1CO | Dose-dependent effect | Dose-dependent effect |  | Activity (Mus musculus): Active
21 | 22.3 | C/C1=C\CC[C@@]2(C)O[C@@H]2CC(C)(C)/C=C/C1=O [ZERUMBONE EPOXIDE] | Dose-dependent effect | Dose-dependent effect |  | 
22 |  | CO[C@@H]1CC[C@@]2(C)O[C@@H]2CC(C)(C)/C=C/C(=O)[C@@H]1C |  |  | < 50 | 
